Four molecules from patent US20250255829A1, “Multifunctional Nanoparticles and Uses in Managing Cancer and Cardiovascular Diseases” (Emory University, priority 2022, published 2025) can be followed below.

The subject of one data set is atherosclerotic plaques. The experiment in a line: Atherosclerotic plaque quantification from H&E stained aorta sections. The format is in vivo, Apoe−/− mice. The note with it: for volumes of atherosclerotic plaques: 5 mg/kg study. As to the method: Apoe−/−mice bearing dual diseases received the treatment. After surgical resection of the primary tumors, tumor recurrence and mouse survival were monitored. Mice with tumor recurrence and reached the endpoint were sacrificed. Aorta tissues of the mice were collected at the time point. Serial frozen tissue sections were cut throughout the tissue blocks and stained with H&E. Size of plaques in all arteries of each of the H&E stained tissue sections were measured and total size of the plaques from eight tissue sections of each mouse was compared with the mean of the total plaque area of the no treatment control (100%). For PD1Y-HANP/Ava group that sacrificed at 120 days, an additional no treatment group that was time equivalent was used as a control for the progression of atherosclerosis.
Apoe−/−mice bearing subcutaneous mouse colon tumors were treated with different reagents every 3-4 days for three treatments. Three days following the last treatment, all mice were sacrificed, and aorta arteries were collected. Plaque volumes were quantified from serial H&E tissue sections. During 12 days of treatment, PD1Y-HANP/Avasimibe treated mice had 56% reduction of the total plaque volume in the dual disease mouse model.
Following treatments and by the end of the survival study, the aorta tissues were collected.
In order to enhance the therapeutic effect a combination of PD-L1 targeted delivery of HANP/Avasimibe was tested with uPAR targeted delivery of SN38 (7-Ethyl-10-hydroxycamptothecin), which is an active metabolite of irinotecan that is commonly used for the treatment of colon cancer. […] The effect of ATFmmp14-HANP/SN38 alone or in combination with PD1Y-HANP/Avasimibe at 5 mg/kg of Avasimibe and PD1Y peptide dose/injection was examined in a dual mouse colon cancer and atherosclerosis model. […] Significant reductions of the volumes of atherosclerotic plaques in all treatment groups were detected.

Data set [1] relates to s.c. mouse colon tumors (MC38). The experiment in a line: Tumor growth in dual colon cancer and atherosclerosis mouse model. The format is in vivo, Apoe−/− mice. To be noted: dual disease model. As to the method: Apoe^−/− mice on a high fat diet carrying s.c. mouse colon tumors (a dual disease model) received five i.v. treatments, once every three days, of 10 mg/kg of avasimibe or equivalent PD1Y-HANP/avasimibe, 10 mg/kg of PD1Y peptide equivalent of PD1Y-HANP or PD1Y. Residual tumors were surgically resected 6 days by surgery after the last therapy. Tumors were weighted.
Apoe−/−mice bearing s.c. MC38 tumors received i.v. treatments of 5 mg/kg of Avasimibe, 5 mg/kg of PD1Y peptide, or […] of SN38 equivalent dose of free drugs or nanoparticle drugs.
MC38 tumor specific IgG antibodies were detected in the mouse serum following PD1Y-HANP/Avasimibe treatment. […]
Apoe^−/− (Apo E gene knock-out) mouse is a commonly used mouse model for atherosclerosis. […] Histological analysis of H&E stained tissue sections using NIR fluorescence microscopy (Keyence) confirmed HANP signals in the plaques. […]
In order to enhance the therapeutic effect a combination of PD-L1 targeted delivery of HANP/Avasimibe was tested with uPAR targeted delivery of SN38 (7-Ethyl-10-hydroxycamptothecin), which is an active metabolite of irinotecan that is commonly used for the treatment of colon cancer. […] Significant reductions of the volumes of atherosclerotic plaques in all treatment groups were detected.

Data set [2] can be described thus: Targeted delivery by NIR optical imaging and NIR fluorescence microscopy. The format is in vivo, Apoe−/− mice. The note with it: systemic (i.v.) delivery, 48 hrs. The procedure: Apoe^−/− (Apo E gene knock-out) mouse is a commonly used mouse model for atherosclerosis. […] Apoe^−/− mice developed s.c. tumors within 2-3 weeks and extensive atherosclerosis were found in the aortas, especially in the aorta arching. Targeted delivery of PD1Y-HANPs into tumors and atherosclerotic plaques is mediated by targeting PD-L1 (PD1Y) and CD44 (HANP) expressed in both tissues. To determine efficiency of targeted delivery, NIR 830 dye labeled-PD1Y-HANPs were injected i.v. into Apoe^−/− mice bearing mouse colon tumors. […] Histological analysis of H&E stained tissue sections using NIR fluorescence microscopy (Keyence) confirmed HANP signals in the plaques. PD1Y-HANPs were found as clusters in the stromal and tumor areas, with a higher level in necrotic tumor regions.
(§1) A uPAR targeted stroma-penetrating ligand (ATFmmp14) was developed containing the amino terminal fragment of uPA fused with the catalytic domain of MMP14. […] ATFmmp14 targets to tumor stromal fibroblasts and macrophages and MMP14 digests extracellular matrixes. […] Without PD1Y or ATFmmp14 conjugation, lower levels of HANP/Avasimibe were present in tumors and atherosclerotic plaques. Thus, uPAR targeted ATF or ATFmmp14 conjugated PD1Y-HANP/Avasimibe enhances delivery efficiency in both plaques and tumors in dual disease mouse model or PDX model.

A short description of data set [3]: Intratumoral delivery in colon PDX tumors. The format is in vivo. To be noted: colon PDX tumors in NSG mice.
Description: as §1

Data set [4] concerns MC38 mouse colon cancer cells. The experiment in a line: Cell proliferation assay. Format: cell-based. To be noted: MC-38, read-out: IC50, inhibition of tumor cell proliferation. The text has this: Hydrophobic 5β-cholanic acid was conjugated to HA (HACA) to promote self-assembly and assist in loading of hydrophobic drug molecule avasimibe (Ava). HANP/Ava is produced by self-assembling of HACA and avasimibe using a high-pressure homogenizer. Amount of encapsulated avasimibe could reach to 20% (w/w) in HANP/Ava. PD1Y-HANP/Ava was produced by conjugating chemically synthesized PD1Y peptides, mediated by cysteine of PD1Y and maleimide of a short-PEG (12×) linker (FIG. 1B). A ratio of PD1Y to HANP at 17:1 was used. If a high concentration of PD1Y peptides will be needed for improvement of immune checkpoint inhibition, the amount of PD1Y peptides could be further increased up to 200 peptides per HANP.

`CCc1c2c(nc3ccc(O)cc13)-c1cc3c(c(=O)n1C2)COC(=O)[C@]3(O)CC` [SN38, 7-Ethyl-10-hydroxycamptothecin]: in the data set on atherosclerotic plaques, the “volumes of atherosclerotic plaques” value is “decreased”.

Take “NWNRLSPSNQTEKQAAPHHHHCGAISLHPKAKIEE [Unconjugated PD1Y peptide]”: the therapeutic efficacy result in data set [1] is given as “did not show therapeutic efficacy”. As to “ATFmmp14: amino terminal fragment of uPA fused with the catalytic domain of MMP14; uPAR targeted stroma-penetrating ligand”, the “delivery into tumors and atherosclerotic plaques” value in data set [2] is listed as “high delivery efficiency”. Also, the intratumoral delivery result in data set [3] is given as “high level of intratumoral delivery”. On to `CC(C)c1cc(C(C)C)c(CC(=O)NS(=O)(=O)Oc2c(C(C)C)cccc2C(C)C)c(C(C)C)c1` [avasimibe], for which, in data set [4], the IC50 came out at 28 µM. The “volumes of atherosclerotic plaques” value in the data set with atherosclerotic plaques is recorded as “decreased”. The “amount of the plaques (in words)” value in the data set with atherosclerotic plaques (following treatments and by the end of the survival study) is “significantly decreased”.
